Assay [1] has as its system keratin 6A protein. Nature of the assay: Keratin 6A protein expression in cultured skin tissue of mouse, immunofluorescence staining. It counts as cell-based. Conditions: cultured 12 days, compared to control group not treated (FIG. 1). The method, then:
(§1) In order to confirm whether ferulic acid induces the expression of keratin 6A protein from the skin tissue of a mouse, the cross-sections of the cultured skin tissue and the skin tissue of an adult mouse were treated with ferulic acid to confirm the expression level of keratin 6A protein using Western blotting and immunofluorescence staining.
First, after peeling off the skin of a mouse within one day of age, a circular skin piece was spread on a 24-well plate using a 4 mm punch (Kai industries). The cell medium was carefully added with the growth factor Cnt-57 according to the method of CELLnTEC, and the medium was replaced once every two days. […]
Specifically, for cell fluorescence staining, 500 μl of a 4% paraformaldehyde solution (solvent, PBS) was reacted for 20 minutes, and then washed three times with a washing buffer (0.1 M, PBS). […]
For tissue fluorescence staining, after removing paraffin from the paraffin-coated skin tissue, the tissue was washed three times with a washing buffer (0.1 M, PBS), and reacted with a solution containing hydrogen peroxide (0.1 M PBS, 0.2% H2O2) for 30 minutes to eliminate the activity of endogenous peroxidase. […] Then, after washing three times with a washing buffer (0.1 M, PBS), fluorescence photos were taken using a FluoView FV1000 confocal microscope (Olympus, Tokyo, Japan).

Assay [2] relates to keratin 6A protein. Briefly: Keratin 6A protein expression in skin tissue of an adult mouse, Western blotting and immunofluorescence staining. It counts as in vivo. The method, then: as §1
For tissue fluorescence staining, after removing paraffin from the paraffin-coated skin tissue, the tissue was washed three times with a washing buffer (0.1 M, PBS), and reacted with a solution containing hydrogen peroxide (0.1 M PBS, 0.2% H2O2) for 30 minutes to eliminate the activity of endogenous peroxidase. […] Then, after washing three times with a washing buffer (0.1 M, PBS), fluorescence photos were taken using a FluoView FV1000 confocal microscope (Olympus, Tokyo, Japan). […]
(§2) First, in order to confirm the expression levels of two proteins, keratin 6A and beta-catenin, skin tissue was collected and protein was extracted using a dissolution buffer (pH 7.4, 50 mM, Tris-HCL, 150 mM NaCL, 1 mM EDTA, 1 mM EGTA, 10 mg/mL aprotinin, 10 mg/mL leupeptin, 5 mM phenylmethylsulfonyl fluoride and 1 mM DTT). The extracted protein was quantified using a Bradford reaction solution (Bio-Rad, CA, USA), and 20 μL of the protein was electrophoresed by 10% SDS-PAGE, and transferred to a nitrocellulose membrane (Merck, MA, USA). […]
In general terms: Immunoblotting shows a protein as a band on a membrane.

In assay [3] the test system is keratin 6A protein. Nature of the assay: Keratin 6A protein expression in keratin 5 knock-down kera308 cells, Western blotting. It counts as cell-based, mouse. Conditions: 100 μM, 24 hours, compared to not treated (FIG. 6). The method, then: as §2, with “USA). The membrane was reacted with primary antibodies keratin 6A (rabbit anti-keratin 6A, 1:200, Covans, NJ, USA) and β-actin (anti-β-actin extracted from mouse, 1:1000, Santa Cruz, TX, USA), and washed three times with TBS-T (Tris Buffered Saline with Tween 20) for 10 minutes, and then the membrane was reacted with a secondary antibody (Santa Cruz, TX, USA) for 1 hour.” for “USA).”
The cells were precultured for 15 hours after attaching 1×10^6 cells/well of kera308 cells, and cultured for 24 hours after being treated with 100 μM ferulic acid. The harvested cells were centrifuged at 13,000 rpm for 5 minutes to take the supernatant, and then the protein concentration was quantified using Bradford assay (BioRed). […]

In assay [4] the test system is beta-catenin protein. Briefly: Beta-catenin protein expression in skin epidermal stem cells, immunofluorescence staining and Western blotting. It counts as cell-based, mouse. Particulars: skin epidermal stem cells (FIGS. 7 and 8). The method, then: (§3) In order to confirm whether ferulic acid regulates beta-catenin protein, an experiment was carried out to confirm the expression levels of beta-catenin protein and c-myc protein in epidermal cells and dermal cells of the skin.
(§4) The expression levels of beta-catenin protein and c-myc protein after treating skin epidermal stem cells with ferulic acid, and the expression levels of beta-catenin protein and c-myc protein after treating skin epidermal stem cells with ferulic acid together with LiCl, which is a beta-catenin protein inducer, were confirmed using immunofluorescence staining and Western blotting.
(§5) First, for immunofluorescence staining, the cell fluorescence staining method of Example 1 was referred to. At this time, beta-catenin (anti-beta-catenin extracted from mouse, 1:200, Invitrogen, CA, USA) was used instead of keratin 6A as a primary antibody, and Alexa 647 (anti-mouse IgG derived from goat, 1:1000, Invitrogen, CA, USA) was used instead of Alexa 488 (anti-rabbit IgG extracted from donkey, 1:1000, Invitrogen, CA, USA) as a secondary antibody.
(§6) In addition, for Western blotting, the Western blotting method of Example 1 was referred to. In this case, beta-catenin (anti-beta catenin extracted from mouse, 1:200, Invitrogen, CA, USA) was used instead of keratin 6A as a primary antibody.

Assay [5] relates to c-myc protein. Briefly: c-myc protein expression in skin epidermal stem cells. In kind it is cell-based, mouse. Conditions: skin epidermal stem cells (FIGS. 7 and 8). The protocol:
as §3, §4, §5, §6

In assay [6] the test system is beta-catenin protein. Briefly: Beta-catenin protein expression in skin dermal stem cells, immunofluorescence staining and Western blotting. In kind it is cell-based, mouse. Conditions: skin dermal stem cells (FIGS. 9 and 10). The protocol: as §3
(§7) The expression levels of beta-catenin protein and c-myc protein after treating skin dermal stem cells with ferulic acid, and the expression levels of beta-catenin protein and c-myc protein after treating skin dermal stem cells with ferulic acid together with LiCl, which is a beta-catenin protein inducer, were confirmed using immunofluorescence staining and Western blotting.
as §5, §6

The subject of assay [7] is c-myc protein. Nature of the assay: c-myc protein expression in skin dermal stem cells. It counts as cell-based, mouse. Particulars: skin dermal stem cells (FIGS. 9 and 10). The protocol: as §3, §7, §5, §6

For `COc1cc(/C=C/C(=O)O)ccc1O` [ferulic acid], the “expression level of keratin 6A protein” value is reported as “increased” in assay [1]; “increased significantly” in assay [2] (skin tissue of an adult mouse treated for 3 days and 7 days (FIGS. 2 and 3)); “particularly high” in assay [2] (skin tissue of an adult mouse, 3 days after treating (FIGS. 2 and 3)); “increased significantly” in assay [3]. For the same compound, the “expression of beta-catenin protein” value in assay [4] is “suppressed”. Moreover, in assay [5], the “expression of c-myc protein” value is “suppressed”. Moreover, the “amount of beta-catenin protein” value in assay [6] is recorded as “increased”. In addition, the “amount of c-myc protein” value in assay [7] is “increased”.
